In test [1] the target is human mGluR5a receptors (Homo sapiens (Human), UniProt P41594). As to the kind of experiment: inhibition of glutamate-induced elevation of intracellular calcium in L(tk-) cells expressing human mGluR5a. It counts as cell-based. Conditions: for IC50: glutamate-induced intracellular calcium elevation, L(tk-) cells expressing human mGluR5a, read-out: mGluR5 IC50; for inhibition at 10 µM: LTK, read-out: mGluR5 % inhibition at 10 μM. The text has this:
Activity of compounds of the present invention was examined by determination to what extent the glutamate-induced elevation of the intracellular calcium concentration in L(tk-) cells expressing human mGluR5a receptors (see L. P. Daggett et al., Neuropharm. Vol. 34, pages 871-886, 1995) is inhibited by utilizing methods as described e.g. by L. P. Daggett et al., Neuropharm. Vol. 34, pages 871-886 (1995) and P. J. Flor et al., J. Neurochem. Vol. 67, pages 58-63 (1996).

Test [2] has as its target human mGluR1 (Homo sapiens (Human), UniProt Q13255). As to the kind of experiment: mGluR1 antagonism, L-glutamate induced intracellular calcium increase (FLIPR) in CHO cells stably expressing human mGluR1. The class given is cell-based. The following applies: for IC50: L-glutamate induced intracellular calcium, CHO cells expressing human mGluR1, FLIPR. The text has this:
Activity of compounds of the present invention with respect to mGluR1 antagonism was examined by an assay based on measurements of L-glutamate induced intracellular calcium increases using a 96 well plate-based Fluorometric Imaging Plate Reader (FLIPR), and CHO cells stably expressing human mGluR1. L-glutamate induced robust calcium responses via human mGluR1 in a concentration-dependent manner and in the low micromolar range. The table below represents IC50 values of the inhibition of the glutamate-induced elevation of the intracellular calcium concentration.

From patent publication US8853203B2, “Diazepinone derivatives” (Novartis AG, priority 2012, dated 2014) come the findings set out here.

Sequence of human mGluR5a receptors (P41594 other isoform, or with tags, fused parts or gaps): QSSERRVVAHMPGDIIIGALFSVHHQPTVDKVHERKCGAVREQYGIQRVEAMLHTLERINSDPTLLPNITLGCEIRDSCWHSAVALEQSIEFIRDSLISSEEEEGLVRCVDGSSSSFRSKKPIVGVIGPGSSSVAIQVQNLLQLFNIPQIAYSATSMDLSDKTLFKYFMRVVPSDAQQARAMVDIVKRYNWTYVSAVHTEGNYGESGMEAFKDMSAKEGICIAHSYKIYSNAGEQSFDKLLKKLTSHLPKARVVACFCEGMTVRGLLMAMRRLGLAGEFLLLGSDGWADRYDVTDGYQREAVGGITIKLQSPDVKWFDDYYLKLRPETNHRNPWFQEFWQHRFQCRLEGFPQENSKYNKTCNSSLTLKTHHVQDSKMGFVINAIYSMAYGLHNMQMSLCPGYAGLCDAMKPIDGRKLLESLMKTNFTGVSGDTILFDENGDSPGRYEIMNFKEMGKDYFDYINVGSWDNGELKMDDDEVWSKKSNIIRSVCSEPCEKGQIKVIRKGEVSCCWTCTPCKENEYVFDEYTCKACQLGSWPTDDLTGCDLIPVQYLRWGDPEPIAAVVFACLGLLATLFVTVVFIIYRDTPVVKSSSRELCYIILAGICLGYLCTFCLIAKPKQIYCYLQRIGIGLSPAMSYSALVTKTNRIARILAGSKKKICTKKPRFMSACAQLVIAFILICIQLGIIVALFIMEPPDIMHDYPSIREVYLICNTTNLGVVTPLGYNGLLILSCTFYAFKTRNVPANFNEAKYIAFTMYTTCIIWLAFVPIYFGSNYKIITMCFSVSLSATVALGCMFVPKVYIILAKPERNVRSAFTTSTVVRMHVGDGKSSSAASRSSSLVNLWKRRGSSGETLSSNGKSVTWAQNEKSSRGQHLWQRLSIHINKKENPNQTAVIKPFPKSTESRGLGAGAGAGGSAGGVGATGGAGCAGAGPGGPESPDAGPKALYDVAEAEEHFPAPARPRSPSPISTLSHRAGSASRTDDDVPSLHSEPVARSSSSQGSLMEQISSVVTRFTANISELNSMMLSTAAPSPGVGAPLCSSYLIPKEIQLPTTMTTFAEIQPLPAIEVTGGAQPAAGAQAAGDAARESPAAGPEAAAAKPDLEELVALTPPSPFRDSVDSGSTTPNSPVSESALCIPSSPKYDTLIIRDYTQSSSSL
Sequence of human mGluR1 (Q13255 19-1194): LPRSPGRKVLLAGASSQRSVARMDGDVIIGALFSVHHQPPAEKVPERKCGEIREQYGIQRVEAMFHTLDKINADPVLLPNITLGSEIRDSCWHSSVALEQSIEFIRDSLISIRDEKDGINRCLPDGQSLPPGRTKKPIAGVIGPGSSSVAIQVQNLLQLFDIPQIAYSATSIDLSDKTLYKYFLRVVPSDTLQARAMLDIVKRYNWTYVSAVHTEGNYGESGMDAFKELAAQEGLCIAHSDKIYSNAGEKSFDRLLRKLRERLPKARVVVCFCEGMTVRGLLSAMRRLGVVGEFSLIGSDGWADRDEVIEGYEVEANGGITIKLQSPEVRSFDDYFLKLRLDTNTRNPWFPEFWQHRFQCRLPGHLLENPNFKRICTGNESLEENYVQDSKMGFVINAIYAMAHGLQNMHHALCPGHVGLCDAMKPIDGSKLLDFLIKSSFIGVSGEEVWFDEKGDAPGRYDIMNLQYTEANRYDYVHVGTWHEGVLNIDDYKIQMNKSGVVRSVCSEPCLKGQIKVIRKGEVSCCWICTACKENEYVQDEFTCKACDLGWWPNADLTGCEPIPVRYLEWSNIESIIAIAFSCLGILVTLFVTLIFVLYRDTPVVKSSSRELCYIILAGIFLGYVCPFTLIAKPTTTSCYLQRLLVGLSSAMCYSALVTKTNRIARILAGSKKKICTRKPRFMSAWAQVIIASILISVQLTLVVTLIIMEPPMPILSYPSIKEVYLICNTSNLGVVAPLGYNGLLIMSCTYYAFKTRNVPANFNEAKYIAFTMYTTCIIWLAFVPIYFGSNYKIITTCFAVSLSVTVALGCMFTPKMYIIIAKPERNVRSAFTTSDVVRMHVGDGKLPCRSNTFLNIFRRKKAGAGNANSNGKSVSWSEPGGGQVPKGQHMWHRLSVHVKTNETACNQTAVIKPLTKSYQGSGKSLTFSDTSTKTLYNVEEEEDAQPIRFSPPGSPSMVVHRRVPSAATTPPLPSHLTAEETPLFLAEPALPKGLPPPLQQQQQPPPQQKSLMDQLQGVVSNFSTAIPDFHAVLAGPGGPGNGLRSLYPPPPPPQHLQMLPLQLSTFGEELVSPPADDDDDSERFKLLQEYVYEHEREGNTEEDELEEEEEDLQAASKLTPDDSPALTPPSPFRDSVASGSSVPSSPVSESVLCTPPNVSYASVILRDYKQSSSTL

For the compound `CCc1cn(C2=NCC(=O)N3CCc4c(cccc4C4CCCO4)C3=C2)cn1` (racemic) [Example 111, 2-(4-ethyl-1H-imidazol-1-yl)-9-(tetrahydrofuran-2-yl)-7,8-dihydro-[1,4]diazepino[7,1-a]isoquinolin-5(4H)-one], the IC50 in test [1] turned out to be 53 nM; in test [2] it was 9300 nM.
Consider `CCc1cn(C2=NCC(=O)N3CCc4c(cccc4C4(O)COC4)C3=C2)cn1` [2-(4-ethyl-1H-imidazol-1-yl)-9-(3-hydroxyoxetan-3-yl)-7,8-dihydro-[1,4]diazepino[7,1-a]isoquinolin-5(4H)-one], for which the inhibition at 10 µM in test [1] is under 20%.
Still for that read-out and setting: to `Cc1ccnn1C1=NCC(=O)N2CCc3c(Cl)cccc3C2=C1` [9-chloro-2-(5-methyl-1H-pyrazol-1-yl)-7,8-dihydro-[1,4]diazepino[7,1-a]isoquinolin-5(4H)-one] belongs under 20%.
As to `COc1cccc(C2=NCC(=O)N3CCc4c(OC)cccc4C3=C2)c1` [Example 1, 9-methoxy-2-(3-methoxyphenyl)-7,8-dihydro-[1,4]diazepino[7,1-a]isoquinolin-5(4H)-one], the values for the IC50 in test [1] and in test [2] were 327 nM and 6400 nM, respectively.
The matching figures for `O=C1CN=C(c2cccs2)C=C2c3cccc(Cl)c3CCN12` [Example 2, 9-chloro-2-(thiophen-2-yl)-7,8-dihydro-[1,4]diazepino[7,1-a]isoquinolin-5(4H)-one]: 90 nM and 27 nM.
The matching figures for `COc1cccc(C2=NCC(=O)N3CCc4c(Cl)cccc4C3=C2)c1` [Example 3, 9-chloro-2-(3-methoxyphenyl)-7,8-dihydro-[1,4]diazepino[7,1-a]isoquinolin-5(4H)-one]: 220 nM and 585 nM.
The matching figures for `O=C1CN=C(c2cccs2)C=C2c3cccc(C(F)(F)F)c3CCN12` [Example 4, 2-(thiophen-2-yl)-9-(trifluoromethyl)-7,8-dihydro-[1,4]diazepino[7,1-a]isoquinolin-5(4H)-one]: 180 nM and 150 nM.
With `COc1cccc2c1CCN1C(=O)CN=C(c3cccs3)C=C21` [Example 5, 9-methoxy-2-(thiophen-2-yl)-7,8-dihydro-[1,4]diazepino[7,1-a]isoquinolin-5(4H)-one], the values for the IC50 in test [1] and in test [2] were 44 nM and 15 nM, respectively.
In the case of `COc1cc(C2=NCC(=O)N3CCc4c(Cl)cccc4C3=C2)ccn1` [Example 6, 9-chloro-2-(2-methoxypyridin-4-yl)-7,8-dihydro-[1,4]diazepino[7,1-a]isoquinolin-5(4H)-one], the IC50 in test [1] was 75 nM; in test [2], 3050 nM.
The matching figures for `COc1cccc2c1CCN1C(=O)CN=C(c3ccc(C)o3)C=C21` [Example 7, 9-methoxy-2-(5-methylfuran-2-yl)-7,8-dihydro-[1,4]diazepino[7,1-a]isoquinolin-5(4H)-one]: 24 nM and 210 nM.
The matching figures for `COc1cc(C2=NCC(=O)N3CCc4c(OC)cccc4C3=C2)ccn1` [Example 8, 9-methoxy-2-(2-methoxypyridin-4-yl)-7,8-dihydro-[1,4]diazepino[7,1-a]isoquinolin-5(4H)-one]: 22 nM and 4900 nM.
For the compound `COc1cccc(C2=NCC(=O)N3CCc4c(OC)cccc4C3=C2)n1` [Example 9, 9-methoxy-2-(6-methoxypyridin-2-yl)-7,8-dihydro-[1,4]diazepino[7,1-a]isoquinolin-5(4H)-one], the IC50 in test [1] was 600 nM; in test [2], over 10000 nM.
For the compound `CCc1cc(C2=NCC(=O)N3CCc4c(OC)cccc4C3=C2)ccn1` [Example 10, 2-(2-ethylpyridin-4-yl)-9-methoxy-7,8-dihydro-[1,4]diazepino[7,1-a]isoquinolin-5(4H)-one], the results for the IC50 in test [1] and in test [2] were 345 nM and 940 nM, respectively.
The matching figures for `COc1cccc2c1CCN1C(=O)CN=C(c3ccn(C)n3)C=C21` [Example 11, 9-methoxy-2-(1-methyl-1H-pyrazol-3-yl)-7,8-dihydro-[1,4]diazepino[7,1-a]isoquinolin-5(4H)-one]: 170 nM and 690 nM.
The matching figures for `COCCOc1cccc(C2=NCC(=O)N3CCc4c(OC)cccc4C3=C2)c1` [Example 12, 9-methoxy-2-(3-(2-methoxyethoxy)phenyl)-7,8-dihydro-[1,4]diazepino[7,1-a]isoquinolin-5(4H)-one]: 46 nM and 1300 nM.
The matching figures for `COc1cccc(C2=NCC(=O)N3CCc4c(ccc(Cl)c4OC)C3=C2)c1` [Example 13, 10-chloro-9-methoxy-2-(3-methoxyphenyl)-7,8-dihydro-[1,4]diazepino[7,1-a]isoquinolin-5(4H)-one]: 82 nM and 530 nM.
Consider `COc1cccc(C2=NCC(=O)N3CCc4c(OC)cc(Cl)cc4C3=C2)c1` [Example 14, 11-chloro-9-methoxy-2-(3-methoxyphenyl)-7,8-dihydro-[1,4]diazepino[7,1-a]isoquinolin-5(4H)-one], for which the IC50 in test [1] was 550 nM; in test [2] it was over 10000 nM.
Turning to `CCOc1cccc(C2=NCC(=O)N3C(=C2)c2cccc(OC)c2CC3C)c1` (centres unmarked) [Example 15, 2-(3-ethoxyphenyl)-9-methoxy-7-methyl-7,8-dihydro-[1,4]diazepino[7,1-a]isoquinolin-5(4H)-one], the inhibition at 10 µM is 42% in test [1] and 44% in test [2] (CHO).
`COc1cccc2c1CCN1C(=O)CN=C(c3cccc(C(F)(F)F)c3)C=C21` [Example 16, 9-methoxy-2-(3-(trifluoromethyl)phenyl)-7,8-dihydro-[1,4]diazepino[7,1-a]isoquinolin-5(4H)-one]: the results for the IC50 in test [1] and in test [2] were 2200 nM and 3500 nM, respectively.
On to `COc1ccc(C2=NCC(=O)N3CCc4c(OC)cccc4C3=C2)cc1` [Example 17, 9-methoxy-2-(4-methoxyphenyl)-7,8-dihydro-[1,4]diazepino[7,1-a]isoquinolin-5(4H)-one], for which the IC50 in test [1] is 2200 nM; in test [2], over 10000 nM.
The matching figures for `COc1ccc(C)c(C2=NCC(=O)N3CCc4c(OC)cccc4C3=C2)c1` [Example 18, 9-methoxy-2-(5-methoxy-2-methylphenyl)-7,8-dihydro-[1,4]diazepino[7,1-a]isoquinolin-5(4H)-one]: 4100 nM and over 10000 nM.
For `O=C1CN=C(c2cccs2)C=C2c3cccc(F)c3CCN12` [Example 19, 9-fluoro-2-(thiophen-2-yl)-7,8-dihydro-[1,4]diazepino[7,1-a]isoquinolin-5(4H)-one], the IC50 came to 4500 nM in test [1] and 800 nM in test [2].
The matching figures for `COc1cccc(C2=NCC(=O)N3CCc4c(Br)cccc4C3=C2)c1` [Example 20, 9-bromo-2-(3-methoxyphenyl)-7,8-dihydro-[1,4]diazepino[7,1-a]isoquinolin-5(4H)-one]: 1200 nM and 2800 nM.
The matching figures for `COc1cccc2c1CCN1C(=O)CN=C(c3ccnc(N(C)C)c3)C=C21` [Example 21, 2-(2-(dimethylamino)pyridin-4-yl)-9-methoxy-7,8-dihydro-[1,4]diazepino[7,1-a]isoquinolin-5(4H)-one]: 3900 nM and 5200 nM.
The matching figures for `COc1cc(C2=NCC(=O)N3CCc4c(cccc4N4CCOCC4)C3=C2)ccn1` [Example 22, 2-(2-methoxypyridin-4-yl)-9-morpholino-7,8-dihydro-[1,4]diazepino[7,1-a]isoquinolin-5(4H)-one]: 71 nM and over 10000 nM.
Regarding `Cc1ccc(C2=NCC(=O)N3CCc4c(cccc4N4CCOCC4)C3=C2)o1` [Example 23, 2-(5-methylfuran-2-yl)-9-morpholino-7,8-dihydro-[1,4]diazepino[7,1-a]isoquinolin-5(4H)-one], the values for the IC50 in test [1] and in test [2] were 22 nM and over 10000 nM, respectively.
For `Cn1ccc(C2=NCC(=O)N3CCc4c(cccc4N4CCOCC4)C3=C2)n1` [Example 24, 2-(1-methyl-1H-pyrazol-3-yl)-9-morpholino-7,8-dihydro-[1,4]diazepino[7,1-a]isoquinolin-5(4H)-one], the IC50 was 35 nM in test [1] and over 10000 nM in test [2].
For `Cn1cc(C2=NCC(=O)N3CCc4c(cccc4N4CCOCC4)C3=C2)cn1` [Example 25, 2-(1-methyl-1H-pyrazol-4-yl)-9-morpholino-7,8-dihydro-[1,4]diazepino[7,1-a]isoquinolin-5(4H)-one], the IC50 is 66 nM in test [1] and over 10000 nM in test [2].
The matching figures for `COc1cccc(C2=NCC(=O)N3CCc4c(cccc4C(C)(C)O)C3=C2)c1` [Example 26, 9-(2-hydroxypropan-2-yl)-2-(3-methoxyphenyl)-7,8-dihydro-[1,4]diazepino[7,1-a]isoquinolin-5(4H)-one]: 235 nM and over 10000 nM.
The matching figures for `Cn1ccc(C2=NCC(=O)N3CCc4c(cccc4C(C)(C)O)C3=C2)n1` [Example 27, 9-(2-hydroxypropan-2-yl)-2-(1-methyl-1H-pyrazol-3-yl)-7,8-dihydro-[1,4]diazepino[7,1-a]isoquinolin-5(4H)-one]: 437 nM and over 10000 nM.
Take `O=C1CN=C(n2cnc(C3CCC3)n2)C=C2c3cccc(-c4ccc(F)nc4)c3CCN12` [Example 99h, 2-(3-cyclobutyl-1H-1,2,4-triazol-1-yl)-9-(6-fluoropyridin-3-yl)-7,8-dihydro-[1,4]diazepino[7,1-a]isoquinolin-5(4H)-one]: the IC50 in test [1] turned out to be 38 nM.

Broadly, the IC50 is the point on the concentration scale where inhibition reaches its midpoint. What is called inhibition is the relative decrease from the control value, in per cent.
